Assay results as given in publication PMC10792626 (Saudi Pharmaceutical Journal : SPJ, 2023).
≈ marks a conversion by molar mass, not a printed value.

Target: α-amylase
Experiment: In vitro α-amylase inhibition assay
Assay type: biochemical
Conditions: phosphate buffer pH 6.8, 37 °C

IC50 α-amylase [µg/mL]	Compound
180.6 ± 2.04 (≈ 304 µM)	O=C(/C=C/c1ccc(O)cc1)OC[C@H]1O[C@@H](Oc2c(-c3ccc(O)cc3)oc3cc(O)cc(O)c3c2=O)[C@H](O)[C@@H](O)[C@@H]1O [Compound 2, Tiliroside]
135.2 ± 1.84 (≈ 472 µM)	O=c1c(O)c(-c2ccc(O)cc2)oc2cc(O)cc(O)c12 [Compound 3, Kaempferol]
177.2 ± 2.01 (≈ 290 µM)	C[C@@H]1O[C@@H](OC[C@H]2O[C@@H](Oc3c(-c4ccc(O)c(O)c4)oc4cc(O)cc(O)c4c3=O)[C@H](O)[C@@H](O)[C@@H]2O)[C@H](O)[C@H](O)[C@H]1O [Compound 5, Rutin]
118.4 ± 1.38	Quercetin [Compound 4]
